The test system of experiment [1] is SW-620. As to the kind of experiment: Anticancer activity against human SW620 cells assessed as reduction in cell viability incubated for 5 days by MTT assay. It is filed as functional, cell-based. The conditions noted are these: SW-620, 120 h.
Experiment [2] deals with HCT-116. Briefly: Anticancer activity against human HCT-116 cells assessed as reduction in cell viability incubated for 5 days by MTT assay. It counts as functional, cell-based. The conditions noted are these: HCT-116, 120 h.
Experiment [3] concerns SW-620. Briefly: Cell cycle arrest in human SW620 cells assessed as accumulation of cells at G2/M phase at 1 uM incubated for 24 hrs by PI staining based flow cytometric analysis. It counts as functional.
In experiment [4] the test system is SW-620. Briefly: Induction of apoptosis in human SW620 cells assessed as viable cells at 1 uM measured after 72 hrs by Annexin V-FITC staining based flow cytometric analysis (reference value: 87.36%). It counts as functional. As to conditions: read-out: Activity.
Experiment [5] concerns SW-620. Briefly: Induction of apoptosis in human SW620 cells assessed as early apoptotic cells at 1 uM measured after 72 hrs by Annexin V-FITC staining based flow cytometric analysis (reference value: 1.06%). It counts as functional.
For experiment [6], the system named is SW-620. As to the kind of experiment: Induction of apoptosis in human SW620 cells assessed as late apoptotic cells at 1 uM measured after 72 hrs by Annexin V-FITC staining based flow cytometric analysis (reference value: 5.75%). It is filed as functional.
For experiment [7], the system named is SW-620. Briefly: Induction of apoptosis in human SW620 cells assessed as necrotic cells at 1 uM measured after 72 hrs by Annexin V-FITC staining based flow cytometric analysis (reference value: 5.83%). It counts as functional.
Experiment [8] deals with Serine-protein kinase ATM (Homo sapiens, UniProt Q13315). As to the kind of experiment: Inhibition of ATM in human SW620 cells assessed as increase in gamma H2AX foci at 1 uM incubated for 24 hrs by confocal microscopic analysis. It counts as cell-based.

pIC50: −log10 of the molar value. Active and inactive are the calls of the source. The rule behind the calls is not given here.

Serine-protein kinase ATM, sequence (Q13315 whole entry): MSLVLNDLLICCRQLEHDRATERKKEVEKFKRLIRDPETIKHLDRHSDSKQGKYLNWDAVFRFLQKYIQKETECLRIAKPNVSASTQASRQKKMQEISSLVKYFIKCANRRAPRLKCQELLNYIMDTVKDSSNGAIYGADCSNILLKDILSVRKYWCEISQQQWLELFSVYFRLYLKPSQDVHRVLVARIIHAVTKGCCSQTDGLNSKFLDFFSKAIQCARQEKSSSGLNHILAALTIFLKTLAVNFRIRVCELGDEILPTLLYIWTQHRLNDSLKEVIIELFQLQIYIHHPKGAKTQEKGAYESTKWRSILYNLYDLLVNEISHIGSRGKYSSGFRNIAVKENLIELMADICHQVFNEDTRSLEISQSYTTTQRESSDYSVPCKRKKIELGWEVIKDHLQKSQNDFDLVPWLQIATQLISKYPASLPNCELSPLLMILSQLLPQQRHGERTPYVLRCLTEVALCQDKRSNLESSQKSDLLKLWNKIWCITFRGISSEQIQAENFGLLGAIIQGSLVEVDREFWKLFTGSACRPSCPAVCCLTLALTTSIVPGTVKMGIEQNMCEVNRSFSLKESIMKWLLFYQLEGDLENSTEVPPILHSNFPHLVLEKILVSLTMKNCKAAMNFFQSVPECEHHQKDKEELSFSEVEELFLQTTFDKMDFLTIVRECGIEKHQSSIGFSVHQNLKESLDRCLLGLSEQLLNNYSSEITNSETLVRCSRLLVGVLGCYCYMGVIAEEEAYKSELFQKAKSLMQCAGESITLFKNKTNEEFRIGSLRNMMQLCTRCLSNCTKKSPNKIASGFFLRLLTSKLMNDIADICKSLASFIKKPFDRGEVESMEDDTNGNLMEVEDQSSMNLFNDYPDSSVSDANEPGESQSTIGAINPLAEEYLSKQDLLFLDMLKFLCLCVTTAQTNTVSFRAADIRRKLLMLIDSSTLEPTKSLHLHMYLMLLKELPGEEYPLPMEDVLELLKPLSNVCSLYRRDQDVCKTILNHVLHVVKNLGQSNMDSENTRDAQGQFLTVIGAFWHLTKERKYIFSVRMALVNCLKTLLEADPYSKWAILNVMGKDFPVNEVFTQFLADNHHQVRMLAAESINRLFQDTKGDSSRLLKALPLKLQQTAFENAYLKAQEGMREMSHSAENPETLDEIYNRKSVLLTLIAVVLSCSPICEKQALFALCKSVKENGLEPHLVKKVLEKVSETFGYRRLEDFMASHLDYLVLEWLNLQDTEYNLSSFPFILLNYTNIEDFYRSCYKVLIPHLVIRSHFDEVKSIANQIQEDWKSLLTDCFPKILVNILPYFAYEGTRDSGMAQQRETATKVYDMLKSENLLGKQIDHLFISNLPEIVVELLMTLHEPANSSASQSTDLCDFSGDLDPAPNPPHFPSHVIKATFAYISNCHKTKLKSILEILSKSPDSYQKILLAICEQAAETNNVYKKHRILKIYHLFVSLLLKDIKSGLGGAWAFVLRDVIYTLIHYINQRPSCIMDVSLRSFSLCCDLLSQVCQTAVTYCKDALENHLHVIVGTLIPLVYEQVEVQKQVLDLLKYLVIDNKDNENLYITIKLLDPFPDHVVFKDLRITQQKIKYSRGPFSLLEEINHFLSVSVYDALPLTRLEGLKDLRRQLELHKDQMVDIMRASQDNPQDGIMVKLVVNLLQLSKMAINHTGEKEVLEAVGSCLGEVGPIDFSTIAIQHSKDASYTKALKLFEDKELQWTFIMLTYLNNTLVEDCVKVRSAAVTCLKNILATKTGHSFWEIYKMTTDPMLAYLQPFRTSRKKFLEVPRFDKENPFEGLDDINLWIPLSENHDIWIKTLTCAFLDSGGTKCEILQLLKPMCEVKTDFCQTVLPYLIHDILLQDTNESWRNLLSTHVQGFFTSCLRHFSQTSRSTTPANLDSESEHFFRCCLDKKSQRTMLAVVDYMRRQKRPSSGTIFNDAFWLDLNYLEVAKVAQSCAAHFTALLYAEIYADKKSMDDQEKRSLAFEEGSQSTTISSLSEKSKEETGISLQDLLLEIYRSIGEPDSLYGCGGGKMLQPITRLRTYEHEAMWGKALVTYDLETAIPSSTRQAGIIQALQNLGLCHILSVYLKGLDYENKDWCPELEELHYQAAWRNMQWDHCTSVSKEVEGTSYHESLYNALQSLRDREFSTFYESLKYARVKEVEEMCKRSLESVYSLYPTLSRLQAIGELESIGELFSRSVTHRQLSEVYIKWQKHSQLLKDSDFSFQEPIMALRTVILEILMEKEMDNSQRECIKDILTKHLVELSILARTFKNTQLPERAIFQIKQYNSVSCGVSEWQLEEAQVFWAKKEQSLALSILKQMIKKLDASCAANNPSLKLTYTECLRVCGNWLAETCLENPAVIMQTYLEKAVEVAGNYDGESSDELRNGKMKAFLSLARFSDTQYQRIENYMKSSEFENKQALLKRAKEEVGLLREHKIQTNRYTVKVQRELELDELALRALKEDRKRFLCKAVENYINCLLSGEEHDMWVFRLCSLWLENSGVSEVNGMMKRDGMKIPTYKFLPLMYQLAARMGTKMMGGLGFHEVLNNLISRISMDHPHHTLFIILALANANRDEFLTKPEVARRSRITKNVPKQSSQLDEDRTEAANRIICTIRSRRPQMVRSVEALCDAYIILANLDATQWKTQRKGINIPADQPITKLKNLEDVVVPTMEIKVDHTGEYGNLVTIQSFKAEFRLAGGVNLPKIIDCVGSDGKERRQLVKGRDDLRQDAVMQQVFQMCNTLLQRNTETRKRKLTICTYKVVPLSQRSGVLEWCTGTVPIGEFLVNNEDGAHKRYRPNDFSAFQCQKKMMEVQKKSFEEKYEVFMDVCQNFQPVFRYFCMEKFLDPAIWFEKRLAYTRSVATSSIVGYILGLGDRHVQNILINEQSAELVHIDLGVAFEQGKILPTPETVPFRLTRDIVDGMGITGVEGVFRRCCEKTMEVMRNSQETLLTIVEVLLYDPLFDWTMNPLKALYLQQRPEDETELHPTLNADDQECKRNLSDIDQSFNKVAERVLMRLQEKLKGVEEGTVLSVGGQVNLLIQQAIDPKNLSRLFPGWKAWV

In the case of `CCc1c2c(nc3ccc(OC(=O)N4CCC(N5CCCCC5)CC4)cc13)-c1cc3c(c(=O)n1C2)COC(=O)[C@]3(O)CC` [IRINOTECAN], the results for the pIC50 in experiment [1] and in experiment [2] were 6.85 and 6.04, respectively. The result in experiment [3] was Active. Moreover, the viability at 1 µM in experiment [4] stood at 67.3%. The Activity in experiment [5] is listed as 4.61%; in experiment [6], 21.89%; in experiment [7] it was 6.2%. Besides, in experiment [8], the inhibition entry was “Active”.

The record behind these values is ChEMBL document CHEMBL5316381, “Discovery of [1,2,3]Triazolo[4,5-c]quinoline Derivatives as a New Class of Ataxia-Telangiectasia Mutated Kinase Inhibitors” (ACS Med Chem Lett, 2023).
